Experimental findings from patent EP0335545B2, “Pharmaceutical formulations for parenteral use” (UNIVERSITY OF FLORIDA, priority 1988, dated 1989) are described below.

Values after ≈ are worked out from the molar mass of the structure shown.

The nature of data set [1]: Solubilizing effect of a 50% w/w solution of HPCD on steroids and CDS. As to conditions: 50% w/w aqueous hpcd. On the procedure:
An excess of E2-CDS was sonicated with an aqueous solution of the appropriate solubilizing agent for 30 minutes. The suspension was then centrifuged, filtered through 0.45 µm polyvinylidene difluoride (Millex-HV4, Millipore®) membranes and analyzed by HPLC. […] An estimation of the bulk equilibrium constant was obtained by correlating the millimolarity of E2-CDS solubilized and the millimolarity of the cyclodextrin added. This latter value was calculated using the average molecular weight of the isomeric mixture determined by mass spectroscopy. The solubilizing effect of a 50% w/w solution of HPCD was also examined for a series of steroids and dihydropyridines (CDS). These studies were carried out in a similar manner to those previously described.
For the CDS, the wavelength monitored was 360 nm while for estrogen 220 nm was used.
Separation was achieved on an Analytical Sciences, Inc. (ASI) 10 µm particle size, C18 reversed phase 30 cm x 3.9 mm i.d. analytical column. The flow rate was 1 mL/min, the compounds were detected at 360 nm and in all determinations the temperature was ambient. […] For the GABA-CDS1, a mobile phase consisting of 50:1:1:48 of the same components was required. […] Other compounds were assayed spectrophotometrically.

Data set [2] in a line: Preparation of solid freeze-dried HPCD complexes: degree of incorporation. The data set is classed as physicochemical. The settings on record: freeze-dried complex from 50% w/w HPCD (ASDS 5.1). On the procedure: An excess of E2-CDS was added and the solution then was purged with helium. The resulting suspension was then sonicated for 30 minutes, filtered through a glass filter (ASTM 10-15M, Pyrex No. 36060) and freeze-dried overnight. Best results were obtained by hard-freezing the aqueous solution of the E2-CDS/HPCD complex for at least 10 hours before lyophilization. The degree of complex formation was determined by dissolving a small amount of the dry complex in methanol and then analyzing by high pressure liquid chromatography (HPLC).
An excess of E2-CDS or other CDS was added to a 50% w/w solution of HPCD. The suspension was sonicated for 30 minutes, filtered through 0.45 µm PVDF membranes and freeze-dried. The degree of incorporation was determined either spectrophotometrically or by HPLC. In some cases, the effect of solubilizing agents on the degree of incorporation was examined. This involved adding small amounts of polyoxyethylene 20 cetyl ether (Brij), polyoxyethylene sorbitan monooleate (Tween 80) or ethanol to the aqueous solution prior to lyophilization.
The retention time was 5.2 min. Other compounds were assayed spectrophotometrically.
The solution was degassed and the suspension was sonicated for 30 minutes, after which it was filtered and the filtrate was lyophilized. The dried filtrate contained 65.6 mg testosterone propionate or 29.6 mg T-CDS1 per gram of cyclodextrin complex. Compounds were analyzed for decomposition by thin-layer chromatography and ultraviolet absorption.

A short description of data set [3]: Maximum concentrations of selected CDS in varying concentrations of selected cyclodextrins. In kind it is physicochemical. On the procedure: In further testing, maximum concentrations of selected CDS in varying concentrations of selected cyclodextrins were determined. The concentration of E2-CDS (mg/mL) was as follows: […]
A short description of data set [4]: Phase-solubility experiments in aqueous HPCD at 25±1°C. The method, then:
For comparison, the solubilities of the drugs in water were also determined.
• Wavelength: 245 nm • Column: Waters µBondapak CN, 3.9 mm (id.) x 30 cm • Mobile phase: acetonitrile, acetic acid, water (60:1:39) containing 0.1% 1-hexasulfonic acid, sodium salt • Flow rate: 2.00 mL/min.
• Wavelength: 263 nm • Column: ASI C18, 10 µm, 3.9 mm (i.d.) x 30 cm • Mobile phase: acetonitrile, water (55:45) • Flow rate: 1.00 mL/min.
• Wavelength: 241 nm • Column: Waters µBondapak CN, 3.9 mm (i.d.) x 30 cm • Mobile phase: acetonitrile, water (6:4) • Flow rate: 2.00 mL/min.
• Wavelength: 280 nm • Column: ASI C18, 10 µm, 3.9 mm (i.d.) x 30 cm • Mobile phase: acetonitrile, water (55:45) • Flow rate: 2.00 mL/min.
• Wavelength: 248 nm • Column: Fisher Resolvex C18, 4.6 mm (i.d.) x 25 cm • Mobile phase: acetonitrile, water (6:4) • Flow rate: 1.50 mL/min.
• Wavelength: 248 nm • Column: Fisher Resolvex C18, 4.6 mm (i.d.) x 25 cm • Mobile phase: acetonitrile, water (7:3) • Flow rate: 2.00 mL/min.
• Wavelength: 253 nm • Column: Waters µBondapak CN, 3.9 mm (i.d.) x 30 cm • Mobile phase: acetonitrile, […], water (60:1:39) containing 0.1% 1-hexanesulfonic acid, sodium salt • Flow rate: 2.00 mL/min.
• Wavelength 308 nm • Column: Fisher Resolvex C18, 4.6 mm (i.d.) x 25 cm • Mobile phase: methanol, acetic acid, water (50:1:49) containing 0.1% 1-octanesulfonic acid, sodium salt • Flow rate: 2.00 mL/min.
• Wavelength: 240 nm • Column: Fisher Resolvex C18, 4.6 mm (i.d.) x 25 cm • Mobile phase: acetonitrile, water (6:4) • Flow rate: 1.50 mL/min.
• Wavelength: 240 nm • Column: Fisher Resolvex C18, 4.6 mm (i.d.) x 25 cm Mobile phase: acetonitrile, water (7:3) • Flow rate: 2.00 mL/min.
• Wavelength: 241 nm • Column: Fisher Resolvex C18, 4.6 mm (i.d.) x 25 cm • Mobile phase: acetonitrile, water (7:3) • Flow rate: 2.00 mL/min.
• Wavelength: 230 nm • Column: Waters µBondapak CN, 3.9 mm (i.d.) x 30 cm • Mobile phase: acetonitrile, water (35:65) • Flow rate: 2.00 mL/min.
• Wavelength: 258 nm • Column: Fisher Resolvex C18, 4.6 mm (i.d.) x 25 cm • Mobile phase: acetonitrile, water (55:45) • Flow rate: 2.00 mL/min.
• Wavelength: 325 nm • Column: Waters µBondapak C18, 10 µm, 3.9 mm (i.d.) x 30 cm • Mobile phase: acetonitrile, water (55:45) • Flow rate: 1.00 mL/min.

`C[C@]12CC[C@H]3[C@@H](CCC4=CC(=O)CC[C@@]43C)[C@@H]1CC[C@@H]2O` [Testosterone]: the concentration in solution in data set [1] (solubility) was 38000 µg/mL (≈ 132 mM).

As for `C[C@]12CC[C@@H]3c4ccc(O)cc4CC[C@H]3[C@@H]1C[C@@H](O)[C@@H]2O` [Estriol], the concentration in solution in data set [1] (solubility) came to 40000 µg/mL (≈ 139 mM).

As to “1-methyl-3-N-[3-(benzyloxycarbonyl)propyl]-carbamoyl-1,4-dihydropyridine [GABA-CDS1]”, the “Amount of Drug in Dry Complex” value in data set [2] was found to be 160 mg/g.

On to “17β-{[(1-methyl-1,4-dihydropyridin-3-yl)carbonyl]oxy}-19-norpregn-4-en-20-yn-3-one [norethindrone-CDS]”, for which the “concentration of the norethindrone-CDS” value is 7.13 mg/g in data set [3] (40% hpcd) and 15.9 mg/g in data set [3] (40% hpgcd). Besides, the “Amount of Drug in Dry Complex” value in data set [2] is 0.6 mg/g.

Consider `C#C[C@]1(O)CC[C@H]2[C@@H]3CCc4cc(O)ccc4[C@H]3CC[C@@]21C` [17 α-Ethynylestradiol], for which the solubility (commonly how much of the substance goes into solution per volume) in data set [4] (25% w/v hpcd) stood at 34500 µg/mL (≈ 116 mM); in data set [4] (50% w/w hpcd), 68200 µg/mL (≈ 230 mM); in data set [4] (water), 8 µg/mL (≈ 0.027 mM).

Consider `O=C1NC(=O)C(c2ccccc2)(c2ccccc2)N1` [Phenytoin], for which the “Increase in Solubility (HPCD/water)” value in data set [4] is “∼450”. In addition, the solubility in data set [4] (50% w/w hpcd) was found to be 9300 µg/mL (≈ 36.9 mM); in data set [4] (water), 20 µg/mL (≈ 0.0793 mM).

In the case of `CC1=C(/C=C/C(C)=C/C=C/C(C)=C/CO)C(C)(C)CCC1` [All-trans-Retinol], in data set [4], the “Increase in Solubility (HPCD/water)” value is “∼4,600”. The solubility in data set [4] (50% w/w hpcd) is 4600 µg/mL (≈ 16.1 mM); in data set [4] (water), 1 µg/mL (≈ 0.00349 mM).

On to “1-methyl-3-{[2-(9-guanylmethoxy)ethoxy]carbonyl}-1,4-dihydropyridine [ACV-CDS]”, for which the “Amount of Drug in Dry Complex” value in data set [2] stood at 25 mg/g.

Consider `CN1CCN=C(c2ccccc2)c2cc(Cl)ccc21` [Medazepam], for which the solubility in data set [4] (50% w/w hpcd, pH 7.5) was 8300 µg/mL (≈ 30.7 mM); in data set [4] (water), 10 µg/mL (≈ 0.0369 mM).
